Calls of active or inactive are those of the source. The calls are words filed in the database; no cut-off is given here.

Results on 45 molecules are retold here after ChEMBL document CHEMBL1144190, “Structure-activity relationship study of a novel necroptosis inhibitor, necrostatin-7” (Bioorg Med Chem Lett, 2008).

In assay [1] the test system is Jurkat. The assay can be described thus: Inhibition of TNF-alpha-induced necroptosis in FADD-deficient human Jurkat cells. The format is functional, cell-based.
Assay [2] addresses T1, Receptor-interacting serine/threonine-protein kinase 1 (Homo sapiens) (UniProt Q13546).
T1 sequence (whole entry): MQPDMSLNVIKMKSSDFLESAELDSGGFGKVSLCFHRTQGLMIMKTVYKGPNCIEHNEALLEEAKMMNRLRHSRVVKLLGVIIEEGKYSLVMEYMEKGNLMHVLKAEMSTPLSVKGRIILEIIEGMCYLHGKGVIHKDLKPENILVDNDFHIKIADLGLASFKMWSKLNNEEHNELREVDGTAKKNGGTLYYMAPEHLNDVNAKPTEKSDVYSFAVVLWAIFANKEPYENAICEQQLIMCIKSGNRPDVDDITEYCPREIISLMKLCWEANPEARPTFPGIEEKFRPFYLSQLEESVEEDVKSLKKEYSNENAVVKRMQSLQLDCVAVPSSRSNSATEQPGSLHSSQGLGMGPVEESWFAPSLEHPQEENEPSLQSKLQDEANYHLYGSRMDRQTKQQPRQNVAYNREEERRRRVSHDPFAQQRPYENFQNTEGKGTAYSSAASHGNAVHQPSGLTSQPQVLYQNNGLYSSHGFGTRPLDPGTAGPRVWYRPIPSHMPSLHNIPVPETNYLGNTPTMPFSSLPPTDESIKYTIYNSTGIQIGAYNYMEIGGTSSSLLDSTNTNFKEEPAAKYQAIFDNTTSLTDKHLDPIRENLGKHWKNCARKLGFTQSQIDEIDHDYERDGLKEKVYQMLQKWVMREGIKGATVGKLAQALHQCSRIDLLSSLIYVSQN
The assay can be described thus: Inhibition of GST-tagged human recombinant RIP1 kinase expressed in Sf9 cells.

As to `N=C1S/C(=C\c2c[nH]nc2-c2ccccc2F)C(=O)N1c1nncs1`, in assay [1], the result was inactive.
Same read-out and setting: the value for `N=C1S/C(=C\c2c[nH]nc2-c2ccc(F)cc2)C(=O)N1c1nncs1` was “inactive”; that for `N=C1S/C(=C\c2n[nH]nc2-c2ccc(Cl)cc2)C(=O)N1c1nccs1` was “inactive”.
As a reminder, the EC50 is the concentration needed to bring the measured effect to its halfway point. High values mean a need for much substance, low ones an effect from little substance. In the case of `N=C1S/C(=C\c2c[nH]nc2-c2ccc(-c3ccc(Cl)cc3)cc2)C(=O)N1c1nccs1`, the EC50 in assay [1] is greater than 100 µM.
For `N=C1S/C(=C\c2c[nH]nc2-c2ccccc2)C(=O)N1c1nccs1`, the EC50 in assay [1] turned out to be 40.6 µM.
`COc1ccccc1-c1ccc(-c2n[nH]cc2/C=C2\SC(=N)N(c3nccs3)C2=O)cc1` gave a 50% effective concentration (EC50) in assay [1] of 2.41 µM.
In assay [1], `N=C1S/C(=C\c2c[nH]nc2-c2ccc(N3CCSCC3)cc2)C(=O)N1c1nccs1` yielded an EC50 of 3.3 µM.
Still for that read-out and setting: the value for `N=C1S/C(=C\c2c[nH]nc2-c2ccc(-c3ccc(F)cc3)cc2)C(=O)N1c1nccs1` was 3.87 µM; that for `N=C1S/C(=C\c2c[nH]nc2-c2ccc(C(=O)N3CCCCC3)cc2)C(=O)N1c1nccs1` was 2.09 µM.
In assay [1], `COc1ccc(-c2n[nH]cc2/C=C2\SC(=N)N(c3nccs3)C2=O)cc1` gave an EC50 of 14.9 µM. Compared with the last molecule, the EC50 is about 7.1-fold higher.
In assay [1], `N=C1S/C(=C\c2c[nH]nc2-c2ccc(N3CCOCC3)cc2)C(=O)N1c1nccs1` gave an EC50 of 2.93 µM.
Consider `N=C1S/C(=C\c2n[nH]nc2-c2ccc(F)cc2)C(=O)N1c1nccs1`, for which the outcome in assay [1] was inactive.
With `N=C1S/C(=C\c2c[nH]nc2-c2ccc([N+](=O)[O-])cc2)C(=O)N1c1nccs1`, the EC50 in assay [1] was determined as 23 µM. This lies in the double-digit micromolar range.
On the same count and under the same terms, the value for `N=C1S/C(=C\c2c[nH]nc2-c2ccc(-c3ccccc3)cc2)C(=O)N1c1nccs1` was 1.29 µM.
For the molecule `N=C1S/C(=C\c2conc2-c2ccc(Cl)cc2)C(=O)N1c1nccs1`, the result in assay [1] was inactive.
As for `N=C1S/C(=C\c2cc(CC(N)=O)[nH]c2-c2ccc(F)cc2)C(=O)N1c1nccs1`, the result in assay [1] was inactive.
In turn, `N=C1S/C(=C\c2c[nH]nc2-c2ccc(C(=O)N3CCOCC3)cc2)C(=O)N1c1nccs1` gave an EC50 in assay [1] of 7.19 µM.
Regarding `COc1ccc(-c2ccc(-c3n[nH]cc3/C=C3\SC(=N)N(c4nccs4)C3=O)cc2)cc1`, the EC50 in assay [1] was 2.59 µM.
Regarding `N=C1S/C(=C\c2c[nH]nc2-c2cccc(F)c2)C(=O)N1c1nncs1`, the outcome in assay [1] was inactive.
In assay [1], `N=C1S/C(=C\c2c[nH]nc2-c2ccc(F)c(N3CCOCC3)c2)C(=O)N1c1nccs1` had an EC50 of 2.9 µM.
In the case of `N=C1S/C(=C\c2c[nH]nc2-c2ccc(-c3cccc(F)c3)cc2)C(=O)N1c1nccs1`, a half-maximal response in assay [1] (EC50) required 48 µM.
Take `N=C1S/C(=C\c2c[nH]nc2-c2ccc3c(c2)OCO3)C(=O)N1c1nccs1`: the response in assay [1] was half-maximal at 34.8 µM (EC50).
As for `COc1ccc(-c2n[nH]nc2/C=C2\SC(=N)N(c3nccs3)C2=O)cc1`, in assay [1], the result was inactive.
For the molecule `N=C1S/C(=C\c2n[nH]nc2-c2ccccc2)C(=O)N1c1nccs1`, the outcome in assay [1] was inactive.
On to `N=C1S/C(=C\c2c[nH]nc2-c2ccc(N3CCCC3)cc2)C(=O)N1c1nccs1`, for which a half-maximal effect in assay [1] (EC50) was put at 9.53 µM.
`N=C1S/C(=C\c2c[nH]nc2-c2ccc(O)cc2)C(=O)N1c1nccs1` displayed an EC50 in assay [1] of 32.7 µM. Against the preceding molecule, the EC50 is about 3.4-fold higher.
Take `Cc1cc(/C=C2\SC(=N)N(c3nccs3)C2=O)c(-c2ccc(F)cc2)[nH]1`: the result in assay [1] was inactive.
Turning to `N=C1S/C(=C\c2c[nH]nc2-c2ccc(F)c(F)c2)C(=O)N1c1nccs1`, a half-maximal response in assay [1] (EC50) required 6.32 µM.
Take `N=C1S/C(=C\c2c[nH]nc2-c2ccccc2)C(=O)N1c1nncs1`: the outcome in assay [1] was inactive.
For the molecule `N=C1S/C(=C\c2cc(-c3ccccc3)[nH]c2-c2ccc(F)cc2)C(=O)N1c1nccs1`, the result in assay [1] was inactive.
In turn, `Cc1ccc(-c2ccc(-c3n[nH]cc3/C=C3\SC(=N)N(c4nccs4)C3=O)cc2)cc1` yielded an EC50 in assay [1] of 4.38 µM.
`N=C1S/C(=C\c2c[nH]nc2-c2ccc(Cl)cc2)C(=O)N1c1nccs1`: the EC50 in assay [1] was 15.6 µM.
Turning to `N=C1S/C(=C\c2conc2-c2ccc(F)cc2)C(=O)N1c1nccs1`, the outcome in assay [1] was inactive.
On to `N=C1S/C(=C\c2c[nH]nc2-c2ccccc2F)C(=O)N1c1nccs1`, for which the outcome in assay [1] was inactive.
Take `N=C1S/C(=C\c2c[nH]nc2-c2ccc(N3CCCCC3)cc2)C(=O)N1c1nccs1`: the EC50 in assay [1] stood at 6.36 µM.
Same read-out and setting: the value for `Cc1csc(N2C(=N)S/C(=C\c3c[nH]nc3-c3ccc(F)cc3)C2=O)n1` was 5.25 µM.
The same measure, in the same setting: the same measure for `N=C1S/C(=C\c2c[nH]nc2-c2ccc(Br)cc2)C(=O)N1c1nccs1`: 34.5 µM.
For the molecule `N=C1S/C(=C\c2cc(Cc3ccccc3)[nH]c2-c2ccc(F)cc2)C(=O)N1c1nccs1`, the outcome in assay [1] was inactive.
Turning to `Cc1cnc(N2C(=N)S/C(=C\c3c[nH]nc3-c3ccc(F)cc3)C2=O)s1`, in assay [1], a half-maximal effect (EC50) was put at 23.1 µM.
Regarding `N=C1S/C(=C\c2c[nH]nc2-c2ccc(S(=O)(=O)c3ccccc3)cc2)C(=O)N1c1nccs1`, in assay [2], the result was inactive. For the same molecule, a half-maximal effect in assay [1] (EC50) was put at 1.78 µM.
Consider `Cc1ccc(-c2nocc2/C=C2\SC(=N)N(c3nccs3)C2=O)cc1`, for which, in assay [1], the result was inactive.
The molecule `N=C1S/C(=C\c2c[nH]nc2-c2ccc(F)cc2)C(=O)N1c1nccs1` displayed an EC50 in assay [1] of 10.6 µM.
Take `Cc1ccc(-c2n[nH]cc2/C=C2\SC(=N)N(c3nccs3)C2=O)cc1`: a half-maximal response in assay [1] (EC50) required 7.77 µM.
Regarding `N=C1S/C(=C\c2c[nH]nc2-c2cccc(F)c2)C(=O)N1c1nccs1`, in assay [1], the outcome was inactive.
Same read-out and setting: the same measure for `N=C1S/C(=C\c2conc2-c2ccc([N+](=O)[O-])cc2)C(=O)N1c1nccs1`: “inactive”.
